# In US8633167B2, “Method for the protection of trees” (Syngenta Crop Protection LLC, priority 2006, dated 2014):
# System: cerambycids
# Test: Single-tree protection study (Example 2): cerambycid attacks and larval feeding on standing loblolly pine
# Assay type: in vivo
# Settings: for Cerambycid Feeding Area: bolts cut after tree mortality or at the end of the trial
# Method: Two 20-year-old, recently thinned loblolly pine plantations were selected on land owned by Temple-Inland Forest Products Corporation about 5 km south of Wells (Angelina County), Tex. Trees in one plantation were injected for use in a bolt study (Example 1). Trees in a 0.2 ha section of the second plantation were injected as part of a single-tree protection study (Example 2). A staging area also was set up in the second plantation where bolts from the first plantation were exposed to bark beetles and wood borers.
# Loblolly pine, 15-20 cm DBH, were selected in the second plantation in March 2004. Each treatment (the same as those used in Example 1) was injected into four cardinal points about 0.3 m above the ground on each of 6 trees in April (16th-23rd) using the Arborjet Tree IV™ system. After 5 weeks post-injection (May 28), frills were cut with a hatchet into the sapwood between the injection points near the base of the tree. A cellulose sponge was inserted into each cut and loaded with 10 ml of a 4:1 mix of sodium N-methyldithiocarbamate (MS) (Woodfume®; Osmose, Inc., Buffalo, N.Y.) plus dimethyl sulfoxide (DMSO) (Aldrich Chemical) (Roton 1987, Strom et al. 2004). This method reduces resin to near zero in 1-2 weeks. The intent was to stress the tree and make it susceptible to attack by bark beetles without killing it. […]
# Three weeks after pheromone deployment (June 28), each tree was evaluated by marking a 30 cm section of bole at a height of 3 m. All visible Ips attacks and cerambycid egg niches were counted within the marked area. The number of trees with fading crowns also was recorded. Thereafter, the trees were evaluated weekly for crown fading. When mortality did occur, the trees were felled and two bolts taken and evaluated for attack success and gallery length as described in Example 1. […] Treatment efficacy was determined by comparing tree survival, beetle attacks and egg gallery length on treated and untreated bolts. As before, data were transformed and analyzed by GLM and the Fisher's Protected LSD test using the Statview statistical program.
substance,measurement,setting,value
4″-deoxy-4″-N-methylamino avermectin B1a/B1b [Emamectin],Cerambycid Feeding Area,bolt height 3 m,0.0 a
same,Cerambycid Feeding Area,bolt height 8 m,0.0 a
same,"Mean # of Attacks/0.3 Bole Section at 3 m after 24 days, Cerambycid","standing loblolly pine, after 24 days",0.8 a
